Data from patent US20210252009A1, “COMPOSITION COMPRISING FLT3 INHIBITOR AS EFFECTIVE INGREDIENT FOR INHIBITING DRUG RESISTANCE IN CHRONIC MYELOGENOUS LEUKEMIA” (INDUSTRY-ACADEMIC COOPERATION FOUNDATION, YONSEI UNIVERSITY, priority 2018, published 2021).

Experiments:
[1] = system: FLT3-transformed K562 cells; assay: MTT assay, inhibitors against FLT3 subfactors co-treated with imatinib; format: cell-based; conditions: for Apoptotic effect and drug tolerance (MTT) when co-treated with imatinib: imatinib 1 μM plus inhibitor at three concentrations, 4 days, FIGS. 9a-9e; for Apoptotic effect and drug tolerance when JAK, STAT3, TAZ, TEAD and CD36 are inhibited: summary statement in the description, treatment conditions not given
Procedure: AZD1480 (Selleckem, Cat. No. S2162) was used as a JAK inhibitor, C188-9 (Selleckem, Cat. No. S8605) was used as a STAT3 inhibitor, verteporfin (Selleckem, Cat. No. S1786) was used as a TAZ inhibitor, flufenamic acid (Selleckem, Cat. No. S4268) was used as a TEAD inhibitor, and sulfo-N-succinimidyl oleate (Cayman, Cat. No. 11211) was used as a CD36 inhibitor. […] After treating with each inhibitor for 4 days, MTT assay was conducted in the same manner as in Test Example 5 and absorbance was measured at 540 nm using a multiplate reader (FIG. 9).

[2] = system: wild-type (WT) K562 cells; assay: Drug tolerance test: surviving cells counted after 17 days of anticancer drug treatment; format: cell-based; conditions: 1 μM drug
[3] = system: FLT3-transformed K562 cells; assay: as above; format: cell-based; conditions: K562 FLT3, 1 μM drug
Procedure: Drug tolerance was tested using FLT3-transformed K562 cells (ATCC, CCL-243) mimicking the blast crisis of chronic myelogenous leukemia.
After administering three anticancer drugs against chronic myelogenous leukemia for 17 days to the FLT3-transformed K562 cells, the surviving cells were counted (Table 1).

[4] = system: FLT3-transformed K562 cells having resistance to three drugs (imatinib, dasatinib and nilotinib); conditions: single agent; FIGS. 4-7
[5] = system: FLT3-transformed K562 cells having resistance to imatinib; assay: MTT assay, FLT3 inhibitors co-administered with imatinib; format: cell-based; conditions: 1 μM imatinib alone, 5 days
Procedure: The cells were cultured using DMEM (Hyclone) containing 10% FBS (Gibco). […] The concentration of the FLT3 inhibitor was as follows. […] 5 days later, after adding 100 μL of an MTT labeling reagent included in a cell proliferation kit (Roche) to each well for 2 hours and then treating with […] of a solubilization solution for 24 hours, absorbance was measured at a wavelength of 540 nm using a multiplate reader (FIGS. 8a-8c).

**Q.** What does the source list for `COc1ccc(S(=O)(=O)Nc2cc(-c3c(O)ccc4ccccc34)c(O)c3ccccc23)cc1` [C188-9]?
**A.** Apoptotic effect and drug tolerance (MTT) when co-treated with imatinib [1]: remarkably enhanced apoptotic effect and inhibited drug tolerance; Apoptotic effect and drug tolerance when JAK, STAT3, TAZ, TEAD and CD36 are inhibited [1]: apoptotic effect is enhanced remarkably and drug tolerance is inhibited

**Q.** What does the source list for `Cc1cc(Nc2nc(N[C@@H](C)c3ncc(F)cn3)ncc2Cl)n[nH]1` [AZD1480]?
**A.** Apoptotic effect and drug tolerance (MTT) when co-treated with imatinib [1]: remarkably enhanced apoptotic effect and inhibited drug tolerance; Apoptotic effect and drug tolerance when JAK, STAT3, TAZ, TEAD and CD36 are inhibited [1]: apoptotic effect is enhanced remarkably and drug tolerance is inhibited

**Q.** With `Cc1cn(-c2cc(NC(=O)c3ccc(C)c(Nc4nccc(-c5cccnc5)n4)c3)cc(C(F)(F)F)c2)cn1` [nilotinib] as the compound, how does the Cell number ([2]; Day 0) read?
**A.** 1 × 10^5

**Q.** And the Cell number ([2]; Day 5)?
**A.** 0.9675 × 10^5

**Q.** What about the Cell number ([2]; Day 9) of the same compound?
**A.** 0.23 × 10^5

**Q.** What about the Cell number ([2]; Day 11) of the same compound?
**A.** 0.76 × 10^5

**Q.** And the Cell number ([2]; Day 13)?
**A.** 0.09 × 10^5

**Q.** What about the Cell number ([2]; Day 15) of the same compound?
**A.** 0 × 10^5

**Q.** And the Cell number ([2]; Day 17)?
**A.** 0 × 10^5

**Q.** What about the Cell number ([3]; Day 0) of the same compound?
**A.** 1 × 10^5

**Q.** And the Cell number ([3]; Day 5)?
**A.** 2.0975 × 10^5

**Q.** What about the Cell number ([3]; Day 9) of the same compound?
**A.** 1.38 × 10^5

**Q.** And the Cell number ([3]; Day 11)?
**A.** 2.64 × 10^5

**Q.** And the Cell number ([3]; Day 13)?
**A.** 2.84 × 10^5

**Q.** What about the Cell number ([3]; Day 15) of the same compound?
**A.** 4.52 × 10^5

**Q.** And the Cell number ([3]; Day 17)?
**A.** 17.1 × 10^5

**Q.** And the “Killing of resistant cells, treated only with the one agent” value [4]?
**A.** hardly killed

**Q.** Which results are given for `CCCCCCCC/C=C\CCCCCCCC(=O)ON1C(=O)CC(S(=O)(=O)O)C1=O` (centres unmarked) [sulfo-N-succinimidyl oleate]?
**A.** Apoptotic effect and drug tolerance (MTT) when co-treated with imatinib [1]: remarkably enhanced apoptotic effect and inhibited drug tolerance; Apoptotic effect and drug tolerance when JAK, STAT3, TAZ, TEAD and CD36 are inhibited [1]: apoptotic effect is enhanced remarkably and drug tolerance is inhibited

**Q.** With `O=C(O)c1ccccc1Nc1cccc(C(F)(F)F)c1` [flufenamic acid] as the compound, how does the “Apoptotic effect and drug tolerance (MTT) when co-treated with imatinib” value [1] read?
**A.** remarkably enhanced apoptotic effect and inhibited drug tolerance

**Q.** What about the “Apoptotic effect and drug tolerance when JAK, STAT3, TAZ, TEAD and CD36 are inhibited” value [1] of the same compound?
**A.** apoptotic effect is enhanced remarkably and drug tolerance is inhibited

**Q.** What does the source list for verteporfin?
**A.** Apoptotic effect and drug tolerance (MTT) when co-treated with imatinib [1]: remarkably enhanced apoptotic effect and inhibited drug tolerance; Apoptotic effect and drug tolerance when JAK, STAT3, TAZ, TEAD and CD36 are inhibited [1]: apoptotic effect is enhanced remarkably and drug tolerance is inhibited

**Q.** What does the source list for `Cc1nc(Nc2ncc(C(=O)Nc3c(C)cccc3Cl)s2)cc(N2CCN(CCO)CC2)n1` [dasatinib]?
**A.** Cell number ([2]; Day 0): 1 × 10^5; Cell number ([2]; Day 5): 0.8075 × 10^5; Cell number ([2]; Day 9): 0.35 × 10^5; Cell number ([2]; Day 11): 0.47 × 10^5; Cell number ([2]; Day 13): 0 × 10^5; Cell number ([2]; Day 15): 0 × 10^5; Cell number ([2]; Day 17): 0 × 10^5; Cell number ([3]; Day 5): 1.57 × 10^5; Cell number ([3]; Day 9): 2.87 × 10^5; Cell number ([3]; Day 11): 2.23 × 10^5; Cell number ([3]; Day 13): 2.26 × 10^5; Cell number ([3]; Day 15): 1.76 × 10^5; Cell number ([3]; Day 17): 9.33 × 10^5

**Q.** `Cc1ccc(NC(=O)c2ccc(CN3CCN(C)CC3)cc2)cc1Nc1nccc(-c2cccnc2)n1` [imatinib] was tested. Which Cell number ([2]; Day 0) did it give?
**A.** 1 × 10^5

**Q.** What about the Cell number ([2]; Day 5) of the same compound?
**A.** 0.485 × 10^5

**Q.** What about the Cell number ([2]; Day 9) of the same compound?
**A.** 0.058 × 10^5

**Q.** What about the Cell number ([2]; Day 11) of the same compound?
**A.** 0.52 × 10^5

**Q.** And the Cell number ([2]; Day 13)?
**A.** 0.175 × 10^5

**Q.** What about the Cell number ([2]; Day 15) of the same compound?
**A.** 0 × 10^5

**Q.** What about the Cell number ([2]; Day 17) of the same compound?
**A.** 0 × 10^5

**Q.** And the Cell number ([3]; Day 0)?
**A.** 1 × 10^5

**Q.** What about the Cell number ([3]; Day 5) of the same compound?
**A.** 1.013 × 10^5

**Q.** What about the Cell number ([3]; Day 9) of the same compound?
**A.** 1.905 × 10^5

**Q.** And the Cell number ([3]; Day 11)?
**A.** 1.82 × 10^5

**Q.** And the Cell number ([3]; Day 15)?
**A.** 3.17 × 10^5

**Q.** What about the Cell number ([3]; Day 17) of the same compound?
**A.** 14.3 × 10^5

**Q.** And the “Killing of FLT3-overexpressed K562 cells (MTT), imatinib only” value [5]?
**A.** could not be killed

**Q.** And the “Killing of resistant cells, treated only with the one agent” value [4]?
**A.** hardly killed
